Assays:
Format in all cases: physicochemical
[1] = Light stability of aqueous sitafloxacin solution (white fluorescent tube irradiation); conditions: 1 mg/ml aqueous solution; for Transmission (%): T % at 430 nm
Protocol: To 160 ml of WFI were added 213.2 mg of sitafloxacin (active ingredient: 200 mg) and a varied amount of sodium chloride (0 mg for control, 20 mg, 100 mg, 200 mg, 1 g, 2 g, 4 g, 6 g or 10 g) or, for comparison, 10 g of D-sorbitol. Further, 5 ml of 0.1 mol/l aqueous hydrochloric acid was slowly added, followed by stirring for 30 mintues to dissolve sitafloxacin and sodium chloride. The nine kinds of solution each was adjusted to pH 4.0 by addition of 0.1 mol/l aqueous sodium hydroxide, and WFI was added to make 200 ml. Ten milliliter portions of the resulting aqueous solution were put into colorless ampules.
• (1) pH: Measured with a pH meter (F-16, supplied by Horiba, Ltd.). • (2) Osmotic pressure: Measured with an osmometer (3C2, supplied by Advanced Instrument, Inc.). • (3) (Light) Transmission: A transmission at 430 nm was measured with a Beckman DU-640 spectrophotometer. • (4) Retention: The content of sitafloxacin of the irradiated samples was determined as follows to calculate retention (%).
A test solution was prepared by accurately measuring 2 ml of a sample, adding an accurately measured equal amount of an internal standard solution, adding a mobile phase to make 20 ml, and mixing a 5 ml aliquot of the resulting solution with the mobile phase to make 20 ml.
A standard sitafloxacin solution was prepared by dissolving sitafloxacin for quantitative analysis (whose water content had been measured previously) precisely weighing about 0.1 g in the mobile phase to make a solution accurately measuring 100 ml, adding to an accurate 5 ml aliquot of the solution an accurately measured equal amount of the internal standard solution, adding the mobile phase to make 100 ml, and after thoroughly stirring, filtering the solution through a membrane filter. The test solution and the standard solution each measuring 10 μl were subjected to liquid chromatography under the following conditions. Ratios of the peak areas of sitafloxacin of the test solution or the standard solution to the peak area of the internal standard, QT and QS, were obtained, and the sitafloxacin content was determined according to the following equation. Sitafloxacin (C19H18ClF2N3O3) content (% to nominal amount)=amount (mg) of sitafloxacin for quantitative analysis (on dry basis)×(QT/QS)×(¼)×( 1/25)×100 wherein;
A standard solution was prepared by weighing 0.100 g of sitafloxacin for quantitative analysis (whose water content had been measured previously), adding a mobile phase to accurately make 100 ml, and adding the mobile phase to an accurately measured aliquot (1 ml) of the solution to make 100 ml.
A 10 μl aliquot of a sample and the standard solution was subjected to liquid chromatography under the following conditions, and the peak areas of the respective solutions were calculated by automatic integration to obtain the total content of sitafloxacin related substances.
Each of the 1 mg/ml aqueous solutions of sitafloxacin was irradiated with light of a white fluorescent tube (2500 lux×5 days: 300,000 lux·hr), and the same measurements as described above were repeated.

[2] = Water solubility of free sitafloxacin; conditions: around a neutral pH
[3] = Light stability of aqueous sitafloxacin solution (white fluorescent tube irradiation); conditions: sodium chloride-containing aqueous solution adjusted to pH 4.0, versus aqueous solutions without sodium chloride
[4] = Initial, 5% D-sorbitol in place of sodium chloride
[5] = Irradiated (300,000 lux·hr), 5% D-sorbitol in place of sodium chloride
[6] = Irradiated (300,000 lux·hr), NaCl 0%
[7] = Irradiated (300,000 lux·hr), NaCl 0.01%
[8] = Irradiated (300,000 lux·hr), NaCl 0.05%
[9] = Irradiated (300,000 lux·hr), NaCl 0.10%
[10] = Irradiated (300,000 lux·hr), NaCl 0.50%
[11] = Irradiated (300,000 lux·hr), NaCl 1.0%
[12] = Irradiated (300,000 lux·hr), NaCl 2.0%
[13] = Irradiated (300,000 lux·hr), NaCl 3.0%
[14] = Irradiated (300,000 lux·hr), NaCl 5.0%

N[C@@H]1CN(c2c(F)cc3c(=O)c(C(=O)O)cn([C@@H]4C[C@@H]4F)c3c2Cl)CC12CC2 [sitafloxacin, (−)-7-[(7S)-7-amino-5-azaspiro[2.4]heptan-5-yl]-8-chloro-6-fluoro-1-[(1R,2S)-2-fluoro-1-cyclopropyl]-1,4-dihydro-4-oxo-3-quinolinecarboxylic acid]
Total Related substances (%) [1, 4]: 0.30%
pH [1, 4]: 4.3
Transmission (%) [1, 4]: 77.2%
Total Related substances (%) ([1]; Initial, NaCl 0%): 0.31%
pH ([1]; Initial, NaCl 0%): 4.2
Transmission (%) ([1]; Initial, NaCl 0%): 77.6%
Total Related substances (%) ([1]; Initial, NaCl 0.01%): 0.30%
pH ([1]; Initial, NaCl 0.01%): 4.4
Transmission (%) ([1]; Initial, NaCl 0.01%): 77.1%
Total Related substances (%) ([1]; Initial, NaCl 0.05%): 0.29%
pH ([1]; Initial, NaCl 0.05%): 4.3
Transmission (%) ([1]; Initial, NaCl 0.05%): 76.8%
Total Related substances (%) ([1]; Initial, NaCl 0.10%): 0.26%
pH ([1]; Initial, NaCl 0.10%): 4.3
Transmission (%) ([1]; Initial, NaCl 0.10%): 76.7%
Total Related substances (%) ([1]; Initial, NaCl 0.50%): 0.28%
pH ([1]; Initial, NaCl 0.50%): 4.2
Transmission (%) ([1]; Initial, NaCl 0.50%): 75.6%
Total Related substances (%) ([1]; Initial, NaCl 1.0%): 0.30%
pH ([1]; Initial, NaCl 1.0%): 4.3
Transmission (%) ([1]; Initial, NaCl 1.0%): 74.7%
Total Related substances (%) ([1]; Initial, NaCl 2.0%): 0.31%
pH ([1]; Initial, NaCl 2.0%): 4.3
Transmission (%) ([1]; Initial, NaCl 2.0%): 73.1%
Total Related substances (%) ([1]; Initial, NaCl 3.0%): 0.30%
pH ([1]; Initial, NaCl 3.0%): 4.3
Transmission (%) ([1]; Initial, NaCl 3.0%): 72.8%
Total Related substances (%) ([1]; Initial, NaCl 5.0%): 0.30%
pH ([1]; Initial, NaCl 5.0%): 4.3
Transmission (%) ([1]; Initial, NaCl 5.0%): 70.7%
Retention (per Initial %) [1, 5]: 86.6%
Total Related substances (%) [1, 5]: 5.90%
pH [1, 5]: 3.5
Transmission (%) [1, 5]: 56.8%
Retention (per Initial %) [1, 6]: 84.2%
Total Related substances (%) [1, 6]: 5.90%
pH [1, 6]: 3.4
Transmission (%) [1, 6]: 47.1%
Retention (per Initial %) [1, 7]: 87.9%
Total Related substances (%) [1, 7]: 5.21%
pH [1, 7]: 3.7
Transmission (%) [1, 7]: 52.8%
Retention (per Initial %) [1, 8]: 91.7%
Total Related substances (%) [1, 8]: 3.84%
pH [1, 8]: 3.8
Transmission (%) [1, 8]: 61.0%
Retention (per Initial %) [1, 9]: 93.5%
Total Related substances (%) [1, 9]: 3.02%
pH [1, 9]: 3.8
Transmission (%) [1, 9]: 64.4%
Retention (per Initial %) [1, 10]: 94.2%
Total Related substances (%) [1, 10]: 2.48%
pH [1, 10]: 3.9
Transmission (%) [1, 10]: 63.6%
Retention (per Initial %) [1, 11]: 94.7%
Total Related substances (%) [1, 11]: 2.02%
pH [1, 11]: 3.9
Transmission (%) [1, 11]: 62.6%
Retention (per Initial %) [1, 12]: 94.0%
Total Related substances (%) [1, 12]: 2.30%
pH [1, 12]: 3.8
Transmission (%) [1, 12]: 60.7%
Retention (per Initial %) [1, 13]: 95.5%
Total Related substances (%) [1, 13]: 2.01%
pH [1, 13]: 3.9
Transmission (%) [1, 13]: 61.0%
Retention (per Initial %) [1, 14]: 94.8%
Total Related substances (%) [1, 14]: 2.28%
pH [1, 14]: 3.9
Transmission (%) [1, 14]: 57.6%
water solubility [2]: poor
formation of related substances due to irradiation or the reduction in pH [3]: more suppressed
